According to patent US12624038B2, “Molecules and methods related to treatment of uncontrolled cellular proliferation” (ST. JUDE CHILDREN'S RESEARCH HOSPITAL, priority 2019, dated 2026):
Entries after “also recorded” stand apart in the source; their conditions may differ. Read-outs that look alike come from different tables or passages of the source.

Tests used:
TYK2 = TYK2 (Homo sapiens, UniProt P29597); assay: KdELECT Kd measurement (KINOMEscan platform), TYK2; assay type: binding; set-up: purchased Eurofins DiscoveRx; conditions: read-out: Kd to JAK family kinases, TYK2
Sequence of TYK2 (P29597 whole entry): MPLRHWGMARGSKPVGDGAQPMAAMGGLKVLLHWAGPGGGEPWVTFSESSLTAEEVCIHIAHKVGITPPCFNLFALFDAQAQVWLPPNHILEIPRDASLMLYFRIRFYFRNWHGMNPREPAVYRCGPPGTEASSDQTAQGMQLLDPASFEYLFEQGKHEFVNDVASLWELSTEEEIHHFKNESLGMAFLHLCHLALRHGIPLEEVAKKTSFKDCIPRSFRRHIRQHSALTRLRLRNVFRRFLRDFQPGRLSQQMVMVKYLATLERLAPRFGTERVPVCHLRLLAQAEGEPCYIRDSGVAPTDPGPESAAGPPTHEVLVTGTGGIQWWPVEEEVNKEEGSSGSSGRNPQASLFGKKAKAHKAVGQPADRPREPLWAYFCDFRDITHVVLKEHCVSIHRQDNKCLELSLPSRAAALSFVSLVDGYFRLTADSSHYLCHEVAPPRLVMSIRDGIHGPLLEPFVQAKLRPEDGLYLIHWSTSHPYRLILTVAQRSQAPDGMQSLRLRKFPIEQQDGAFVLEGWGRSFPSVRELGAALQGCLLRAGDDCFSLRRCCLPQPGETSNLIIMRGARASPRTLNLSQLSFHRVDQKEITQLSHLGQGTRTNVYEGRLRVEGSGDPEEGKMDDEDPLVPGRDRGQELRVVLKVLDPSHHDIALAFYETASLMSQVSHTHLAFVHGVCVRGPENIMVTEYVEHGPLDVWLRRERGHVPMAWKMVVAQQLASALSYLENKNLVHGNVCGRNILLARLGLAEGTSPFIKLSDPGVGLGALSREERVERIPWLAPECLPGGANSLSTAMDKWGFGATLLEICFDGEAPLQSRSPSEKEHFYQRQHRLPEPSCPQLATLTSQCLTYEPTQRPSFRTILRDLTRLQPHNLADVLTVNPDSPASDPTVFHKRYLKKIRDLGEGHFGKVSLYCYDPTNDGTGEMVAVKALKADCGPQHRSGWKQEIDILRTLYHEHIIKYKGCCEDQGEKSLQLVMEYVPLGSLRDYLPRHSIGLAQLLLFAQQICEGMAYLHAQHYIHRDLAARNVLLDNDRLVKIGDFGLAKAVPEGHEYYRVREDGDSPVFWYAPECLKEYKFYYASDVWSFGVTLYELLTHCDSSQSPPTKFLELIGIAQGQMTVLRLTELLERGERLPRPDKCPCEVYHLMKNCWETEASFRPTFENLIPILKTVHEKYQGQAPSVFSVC

MHH-CALL-4 = assay: Cytotoxicity assay (resazurin, 72 hours) in MHH-CALL-4 cells; assay type: cell-based, human; conditions: for killing of MHH-CALL-4 cells (activity in words): correlated with degradation of GSPT1 and JAK2, FIG. 7F
[1] = test system: Human CD45+ leukemic cells from patient derived xenografts (PDX); assay: Ex vivo cytotoxicity (MTT) in PDX leukemic cells; conditions: FIG. 6A
Caco-2 cell permeability = assay type: in vitro ADME; conditions: human, Caco-2; A to B (Table 4); read-out: Cac2 Papp A/B
Method: Compound Caco-2 cell permeability was determined using the Transwell® 0.4 μm polycarbonate membrane 96-well as described before (Uchida, et al. (2009) J Pharmacol Toxicol Methods 59(1): 39-43). Briefly, Caco-2 cells monolayers were incubated over 2 hours at 37° C. Fractions were collected from receivers (basal side, B), and concentrations were assessed by UPLC/MS (Waters; Milford, MA). All compounds were tested in triplicates. The A→B (or B→A) apparent permeability coefficients (Papp) of each compound were calculated using the equation, Papp=dQ/dt×1/AC0, where dQ/dt equals the flux of a drug across the monolayer, A equals the total insert well surface area, and C0 is the initial concentration of substrate in the donor compartment.

JAK2 = target: T1, JAK2 (Homo sapiens, UniProt O60674, I682F); assay: Target degradation (Western Blot) in MHH-CALL-4 cells, JAK2; assay type: cell-based; conditions: 100 nM PROTAC at 24 h
T1 construct: endogenous in cells; host or cells: MHH-CALL-4
T1 sequence (O60674 whole entry I682F): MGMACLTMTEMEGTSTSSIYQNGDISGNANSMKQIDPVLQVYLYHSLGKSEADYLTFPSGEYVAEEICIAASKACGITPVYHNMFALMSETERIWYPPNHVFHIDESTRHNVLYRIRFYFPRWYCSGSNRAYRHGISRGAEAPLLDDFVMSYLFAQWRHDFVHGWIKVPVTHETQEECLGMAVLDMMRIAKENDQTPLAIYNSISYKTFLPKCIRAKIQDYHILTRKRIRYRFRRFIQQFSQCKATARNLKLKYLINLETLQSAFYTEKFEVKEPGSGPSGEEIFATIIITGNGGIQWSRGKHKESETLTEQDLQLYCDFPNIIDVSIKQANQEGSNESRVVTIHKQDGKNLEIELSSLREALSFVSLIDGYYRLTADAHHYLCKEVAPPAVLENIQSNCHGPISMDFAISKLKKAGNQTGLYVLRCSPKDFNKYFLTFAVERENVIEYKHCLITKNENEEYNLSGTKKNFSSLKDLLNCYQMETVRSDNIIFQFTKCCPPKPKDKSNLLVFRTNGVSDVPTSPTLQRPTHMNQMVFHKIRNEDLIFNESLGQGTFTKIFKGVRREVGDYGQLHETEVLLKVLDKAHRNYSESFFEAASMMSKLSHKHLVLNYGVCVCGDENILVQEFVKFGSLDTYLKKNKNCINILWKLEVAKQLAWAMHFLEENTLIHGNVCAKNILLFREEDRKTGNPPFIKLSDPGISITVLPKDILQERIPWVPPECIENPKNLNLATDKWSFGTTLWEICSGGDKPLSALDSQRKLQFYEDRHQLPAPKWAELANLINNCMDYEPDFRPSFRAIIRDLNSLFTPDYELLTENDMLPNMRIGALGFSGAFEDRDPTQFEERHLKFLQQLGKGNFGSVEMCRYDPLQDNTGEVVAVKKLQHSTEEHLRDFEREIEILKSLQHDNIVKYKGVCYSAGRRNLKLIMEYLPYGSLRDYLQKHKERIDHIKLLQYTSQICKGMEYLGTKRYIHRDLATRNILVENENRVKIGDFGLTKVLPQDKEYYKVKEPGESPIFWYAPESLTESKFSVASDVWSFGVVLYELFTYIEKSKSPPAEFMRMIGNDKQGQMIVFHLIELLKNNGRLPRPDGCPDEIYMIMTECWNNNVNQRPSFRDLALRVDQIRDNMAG

GSPT1 = target: T2, GSPT1 (Homo sapiens, UniProt P15170+Q96SW2); assay: Target degradation (Western Blot) in MHH-CALL-4 cells, GSPT1; assay type: cell-based; conditions: 100 nM PROTAC at 24 h
T2 construct: endogenous in cells; host or cells: MHH-CALL-4
T2 sequence (P15170 whole entry): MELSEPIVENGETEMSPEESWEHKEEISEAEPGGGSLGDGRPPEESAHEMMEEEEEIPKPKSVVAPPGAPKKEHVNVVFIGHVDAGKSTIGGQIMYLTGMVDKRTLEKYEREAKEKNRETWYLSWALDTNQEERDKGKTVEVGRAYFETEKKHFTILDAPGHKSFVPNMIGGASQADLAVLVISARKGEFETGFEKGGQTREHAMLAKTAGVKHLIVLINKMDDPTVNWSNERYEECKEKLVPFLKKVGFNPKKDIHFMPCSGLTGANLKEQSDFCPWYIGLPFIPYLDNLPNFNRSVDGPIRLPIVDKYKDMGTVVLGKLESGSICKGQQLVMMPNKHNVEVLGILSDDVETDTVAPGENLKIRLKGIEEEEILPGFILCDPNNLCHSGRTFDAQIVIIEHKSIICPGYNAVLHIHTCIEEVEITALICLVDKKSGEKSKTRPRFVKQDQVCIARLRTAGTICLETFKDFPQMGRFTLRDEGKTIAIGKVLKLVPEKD
T2 sequence (Q96SW2 whole entry): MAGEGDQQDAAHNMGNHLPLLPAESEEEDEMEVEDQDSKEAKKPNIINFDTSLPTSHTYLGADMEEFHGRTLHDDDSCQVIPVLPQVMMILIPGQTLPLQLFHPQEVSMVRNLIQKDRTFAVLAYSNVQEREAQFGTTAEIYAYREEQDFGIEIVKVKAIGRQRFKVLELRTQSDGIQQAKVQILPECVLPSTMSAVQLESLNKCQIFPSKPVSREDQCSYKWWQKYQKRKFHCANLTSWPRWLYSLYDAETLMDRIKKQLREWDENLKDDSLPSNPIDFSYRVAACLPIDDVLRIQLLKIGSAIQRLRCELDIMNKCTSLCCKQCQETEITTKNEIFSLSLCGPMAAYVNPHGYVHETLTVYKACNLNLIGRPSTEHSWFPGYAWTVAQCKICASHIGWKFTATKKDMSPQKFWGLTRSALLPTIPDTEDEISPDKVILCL
T2 sequence (Q16531 whole entry partner): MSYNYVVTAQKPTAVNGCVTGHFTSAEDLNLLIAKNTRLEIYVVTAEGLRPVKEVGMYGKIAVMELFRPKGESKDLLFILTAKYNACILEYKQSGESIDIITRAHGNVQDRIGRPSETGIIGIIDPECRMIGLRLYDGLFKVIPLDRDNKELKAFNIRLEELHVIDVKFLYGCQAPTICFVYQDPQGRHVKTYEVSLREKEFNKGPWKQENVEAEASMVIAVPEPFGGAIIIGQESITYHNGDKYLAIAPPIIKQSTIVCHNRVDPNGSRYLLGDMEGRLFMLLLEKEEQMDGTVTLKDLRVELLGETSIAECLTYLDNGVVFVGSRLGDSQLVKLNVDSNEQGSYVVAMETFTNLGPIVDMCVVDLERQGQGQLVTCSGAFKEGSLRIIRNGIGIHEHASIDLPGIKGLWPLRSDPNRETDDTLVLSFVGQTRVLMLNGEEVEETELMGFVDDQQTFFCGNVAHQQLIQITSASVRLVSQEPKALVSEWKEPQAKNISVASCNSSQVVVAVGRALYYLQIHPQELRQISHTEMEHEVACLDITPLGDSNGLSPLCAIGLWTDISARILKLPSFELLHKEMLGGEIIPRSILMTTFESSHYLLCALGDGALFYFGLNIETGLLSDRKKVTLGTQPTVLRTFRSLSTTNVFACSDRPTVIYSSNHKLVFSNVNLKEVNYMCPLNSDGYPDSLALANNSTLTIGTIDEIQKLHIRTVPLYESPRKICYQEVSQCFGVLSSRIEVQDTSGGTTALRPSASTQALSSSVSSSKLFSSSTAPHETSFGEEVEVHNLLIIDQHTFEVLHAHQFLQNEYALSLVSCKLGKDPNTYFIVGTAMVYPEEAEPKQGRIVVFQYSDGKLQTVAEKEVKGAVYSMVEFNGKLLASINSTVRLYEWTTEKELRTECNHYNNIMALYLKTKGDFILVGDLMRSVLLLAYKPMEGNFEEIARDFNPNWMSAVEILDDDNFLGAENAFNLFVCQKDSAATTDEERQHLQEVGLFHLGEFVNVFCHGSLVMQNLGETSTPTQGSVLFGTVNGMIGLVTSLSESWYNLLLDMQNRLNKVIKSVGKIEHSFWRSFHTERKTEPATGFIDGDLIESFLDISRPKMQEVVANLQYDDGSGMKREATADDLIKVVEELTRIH

IKZF1 = target: T3, IKZF1 (Homo sapiens, UniProt Q13422+Q96SW2); assay: Target degradation (Western Blot) in MHH-CALL-4 cells, IKZF1; assay type: cell-based; conditions: 100 nM PROTAC at 24 h
T3 construct: endogenous in cells; host or cells: MHH-CALL-4
T3 sequence (Q13422 whole entry): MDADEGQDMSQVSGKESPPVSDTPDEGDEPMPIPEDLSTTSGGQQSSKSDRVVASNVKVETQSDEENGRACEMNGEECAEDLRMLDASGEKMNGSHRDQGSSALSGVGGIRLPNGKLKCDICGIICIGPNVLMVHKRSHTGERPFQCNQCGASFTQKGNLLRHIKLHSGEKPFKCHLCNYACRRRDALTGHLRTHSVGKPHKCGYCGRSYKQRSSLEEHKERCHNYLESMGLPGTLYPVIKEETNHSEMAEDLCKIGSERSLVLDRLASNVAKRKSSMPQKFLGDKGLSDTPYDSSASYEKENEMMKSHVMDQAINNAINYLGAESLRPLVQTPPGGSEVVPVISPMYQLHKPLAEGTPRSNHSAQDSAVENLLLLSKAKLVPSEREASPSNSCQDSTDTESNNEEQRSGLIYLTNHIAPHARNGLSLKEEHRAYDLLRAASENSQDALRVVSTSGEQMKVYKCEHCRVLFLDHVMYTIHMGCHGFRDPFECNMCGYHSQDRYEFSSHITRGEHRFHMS
T3 sequence (Q96SW2 whole entry): as the sequence (Q96SW2 whole entry) above
T3 sequence (Q16531 whole entry partner): as the sequence (Q16531 whole entry partner) above

[2] = Homo sapiens, MHHCALL4, Table 6, starred: EC50 from partial dose response curve, read-out: MHHCALL4 EC50 from partial dose response curve
[3] = Homo sapiens, MHHCALL4, MHH-CALL-4 (Table 2), read-out: EC50 in MHH-CALL-4
[4] = Homo sapiens, MHHCALL4, MHH-CALL-4 (Table 1), read-out: EC50

Question: With `CCS(=O)(=O)N1CC(CC#N)(n2cc(-c3ncnc4[nH]ccc34)cn2)C1` [Baricitinib, baricitinib, reference compound] as the compound, how does the Kd (TYK2) read?
Answer: 0.0013 µM

Question: With `CC(=O)Nc1cc(Oc2ccc3c(nc(Nc4ccc(F)cc4F)n3C)c2C)ccn1` [CHZ868, reference compound] as the compound, how does the EC50 (MHH-CALL-4; MHH-CALL-4 (Table 2), read-out: EC50 in MHH-CALL-4) read?
Answer: 0.18 µM

Question: What about the “cytotoxicity in PDX cells ex vivo” value [1] of the same compound?
Answer: not

Question: Which results are given for `CCS(=O)(=O)N1CC(CC#N)(n2cc(-c3nc(Nc4ccc(C(=O)NCCN5CCN(c6ccc7c(c6)C(=O)N(C6CCC(=O)NC6=O)C7=O)CC5)cc4)nc4[nH]ccc34)cn2)C1` (centres unmarked) [Compound 8]?
Answer: killing of MHH-CALL-4 cells (activity in words) (MHH-CALL-4): intermediately effective; also recorded: reduced activity; Papp A→B at 2 h (Caco-2 cell permeability): 0.002 ×10⁻⁶ cm/s

Question: Which EC50 (MHH-CALL-4; [2]) does the source give for `CCS(=O)(=O)N1CC(CC#N)(n2cc(-c3nc(Nc4ccc(C(=O)NCCCNc5ccc6c(c5)C(=O)N(C5CCC(=O)NC5=O)C6=O)cc4)nc4[nH]ccc34)cn2)C1` (centres unmarked) [Compound 53] here?
Answer: 0.0346 µM

Question: What about the “killing of MHH-CALL-4 cells (activity in words)” value (“killing of MHH-CALL-4 cells” for short) (MHH-CALL-4) of the same compound?
Answer: intermediately effective

Question: And the “Target Degradation (Western Blot) JAK2” value (JAK2)?
Answer: 1 (1 = None (<20% degradation at 24 h))

Question: What about the “Target Degradation (Western Blot) GSPT1” value (GSPT1) of the same compound?
Answer: 3 (3 = Strong (>60% degradation at 24 h))

Question: With `CCS(=O)(=O)N1CC(CC#N)(n2cc(-c3nc(Nc4ccc(C(=O)NCCCN5CCN(c6ccc7c(c6)C(=O)N(C6CCC(=O)NC6=O)C7=O)CC5)cc4)nc4[nH]ccc34)cn2)C1` (centres unmarked) [Compound 56] as the compound, how does the EC50 (MHH-CALL-4; [2]) read?
Answer: 0.562 µM

Question: What about the “killing of MHH-CALL-4 cells” value (MHH-CALL-4) of the same compound?
Answer: intermediately effective

Question: What about the “Target Degradation (Western Blot) JAK2” value (JAK2) of the same compound?
Answer: 2 (2 = Medium (20-40% degradation at 24 h))

Question: And the “Target Degradation (Western Blot) IKZF1” value (IKZF1)?
Answer: 1 (1 = None (<20% degradation at 24 h))

Question: What does the source list for `CCS(=O)(=O)N1CC(CC#N)(n2cc(-c3nc(Nc4ccc(C(=O)NCCCNC(=O)COc5cccc6c5C(=O)N(C5CCC(=O)NC5=O)C6=O)cc4)nc4[nH]ccc34)cn2)C1` (centres unmarked) [Compound 59]?
Answer: EC50 (MHH-CALL-4; [2]): 4.19 µM; killing of MHH-CALL-4 cells (activity in words) (MHH-CALL-4): relatively low activity; Target Degradation (Western Blot) JAK2 (JAK2): 1 (1 = None (<20% degradation at 24 h)); Target Degradation (Western Blot) IKZF1 (IKZF1): 1 (1 = None (<20% degradation at 24 h))

Question: With `CCS(=O)(=O)N1CC(CC#N)(n2cc(-c3nc(Nc4ccc(C(=O)NCCCCNc5cccc6c5C(=O)N(C5CCC(=O)N(C)C5=O)C6=O)cc4)nc4[nH]ccc34)cn2)C1` (centres unmarked) [Compound 61] as the compound, how does the EC50 (MHH-CALL-4; [2]) read?
Answer: 0.0515 µM

Question: What about the “killing of MHH-CALL-4 cells” value (MHH-CALL-4) of the same compound?
Answer: intermediately effective

Question: And the “Target Degradation (Western Blot) JAK2” value (JAK2)?
Answer: 1 (1 = None (<20% degradation at 24 h))

Question: And the “Target Degradation (Western Blot) IKZF1” value (IKZF1)?
Answer: 2 (2 = Medium (20-40% degradation at 24 h))

Question: For `CCS(=O)(=O)N1CC(CC#N)(n2cc(-c3nc(Nc4ccc(C(=O)NCCCCNc5ccc6c(c5)C(=O)N(C5CCC(=O)NC5=O)C6=O)cc4)nc4[nH]ccc34)cn2)C1` (centres unmarked) [Compound 80], which EC50 (MHH-CALL-4; Homo sapiens, MHHCALL4, Table 6, no star, read-out: MHHCALL4 EC50) is on record?
Answer: > 5.5 µM

Question: What about the “killing of MHH-CALL-4 cells” value (MHH-CALL-4) of the same compound?
Answer: relatively low activity

Question: And the “Target Degradation (Western Blot) JAK2” value (JAK2)?
Answer: 1 (1 = None (<20% degradation at 24 h))

Question: What about the “Target Degradation (Western Blot) IKZF1” value (IKZF1) of the same compound?
Answer: 1 (1 = None (<20% degradation at 24 h))

Question: For `Nc1cccc2c1CN(C1CCC(=O)NC1=O)C2=O` (centres unmarked) [Lenalidomide, lenalidomide, reference compound], which EC50 (MHH-CALL-4; [3]) is on record?
Answer: 34.5 µM

Question: Which EC50 (MHH-CALL-4; [3]) does the source give for `Nc1cccc2c1C(=O)N(C1CCC(=O)NC1=O)C2=O` (centres unmarked) [Pomalidomide, pomalidomide, reference compound] here?
Answer: 63.7 µM

Question: For `N#CC[C@H](C1CCCC1)n1cc(-c2ncnc3[nH]ccc23)cn1` [Ruxolitinib, ruxolitinib, reference compound], which EC50 (MHH-CALL-4; Homo sapiens, MHHCALL4, read-out: EC50 in MHH-CALL-4) is on record?
Answer: 25.8 µM

Question: What about the EC50 (MHH-CALL-4; Homo sapiens, MHHCALL4, read-out: MHHCALL4 EC50) of the same compound?
Answer: 25.8 µM

Question: For `CCCn1cc(-c2nc(Nc3ccc(C(=O)NCCOCCOCCOCCOCCNc4cccc5c4C(=O)N(C4CCC(=O)NC4=O)C5=O)cc3)nc3[nH]ccc23)cn1` (centres unmarked) [SJ000986049], which EC50 (MHH-CALL-4; [4]) is on record?
Answer: 2.3 µM

Question: For `CCCn1cc(-c2nc(Nc3ccc(C(=O)NCCOCCOCCOCCOCCOCCOCCNc4cccc5c4C(=O)N(C4CCC(=O)NC4=O)C5=O)cc3)nc3[nH]ccc23)cn1` (centres unmarked) [SJ000986050], which EC50 (MHH-CALL-4; [4]) is on record?
Answer: 0.72 µM

Question: Which EC50 (MHH-CALL-4; [4]) does the source give for `CCCn1cc(-c2nc(NCCOCCOCCOCCOCCOCCOCCNC(=O)CNc3cccc4c3CN(C3CCC(=O)NC3=O)C4=O)nc3[nH]ccc23)cn1` (centres unmarked) [SJ000986078, 2-((2-(2,6-dioxopiperidin-3-yl)-1-oxoisoindolin-4-yl)amino)-N-(20-((4-(1-propyl-1H-pyrazol-4-yl)-7H-pyrrolo[2,3-d]pyrimidin-2-yl)amino)-3,6,9,12,15,18-hexaoxaicosyl)acetamide] here?
Answer: > 100 µM

Question: For `CCCn1cc(-c2nc(NCCOCCOCCOCCOCCNC(=O)CNc3cccc4c3CN(C3CCC(=O)NC3=O)C4=O)nc3[nH]ccc23)cn1` (centres unmarked) [SJ000986079, 2-((2-(2,6-dioxopiperidin-3-yl)-1-oxoisoindolin-4-yl)amino)-N-(14-((4-(1-propyl-1H-pyrazol-4-yl)-7H-pyrrolo[2,3-d]pyrimidin-2-yl)amino)-3,6,9,12-tetraoxatetradecyl)acetamide], which EC50 (MHH-CALL-4; [4]) is on record?
Answer: > 100 µM

Question: For `CCCn1cc(-c2nc(Nc3ccc(C(=O)NCCOCCOCCNc4cccc5c4C(=O)N(C4CCC(=O)NC4=O)C5=O)cc3)nc3[nH]ccc23)cn1` (centres unmarked) [SJ000986339], which EC50 (MHH-CALL-4; [4]) is on record?
Answer: > 100 µM

Question: With `CCCn1cc(-c2nc(Nc3ccc(NC(=O)CCOCCOCCOCCOCCOCCOCCNc4cccc5c4C(=O)N(C4CCC(=O)NC4=O)C5=O)cc3)nc3[nH]ccc23)cn1` (centres unmarked) [SJ000986341] as the compound, how does the EC50 (MHH-CALL-4; [4]) read?
Answer: 5.83 µM

Question: For `CCCn1cc(-c2nc(Nc3ccc(NC(=O)CCOCCOCCOCCOCCOCCNc4cccc5c4C(=O)N(C4CCC(=O)NC4=O)C5=O)cc3)nc3[nH]ccc23)cn1` (centres unmarked) [SJ000986342], which EC50 (MHH-CALL-4; [4]) is on record?
Answer: 6.89 µM

Question: For `CCCn1cc(-c2nc(Nc3ccc(C(=O)NCCOCCOCCOCCOCCOCCOCCNc4cccc5c4C(=O)N(C4CCCNC4=O)C5=O)cc3)nc3[nH]ccc23)cn1` (centres unmarked) [SJ000986343], which EC50 (MHH-CALL-4; [4]) is on record?
Answer: 12.8 µM

Question: With `O=C1CCC(N2C(=O)c3ccccc3C2=O)C(=O)N1` (centres unmarked) [Thalidomide, thalidomide, reference compound] as the compound, how does the EC50 (MHH-CALL-4; [3]) read?
Answer: 60 µM
